Laboratory results reported in US9994617B2, “Modulation of structured polypeptide specificity” (BICYCLE THERAPEUTICS LIMITED, priority 2011, dated 2018).
Numbered stars: 1 amine (or outer) side, 2 acyl side, 3 side chain; on linkers, the order of the positions; unused ones are H or OH. Bridge positions count the residues as written; N and C are the ends. Square brackets hold non-standard residues; d marks the D form. Peptide text beside a SMILES is read from it. Arg(Me2a) = CN(C)C(=N)NCCC[C@H](N)C(=O)O; Arg(Me2s) = CN=C(NC)NCCC[C@H](N)C(=O)O; TBMB = c1c(C[*:1])cc(C[*:3])cc1C[*:2]

Key:
[1] = molecular target: rat plasma kallikrein (rPK) (Rattus norvegicus, UniProt P14272); experiment: Enzyme inhibition assay, rat plasma kallikrein
[2] = molecular target: human plasma kallikrein (hPK) (Homo sapiens, UniProt P03952); experiment: Enzyme inhibition assay, human plasma kallikrein
[3] = Quantitative plasma stability, method 3 (LC/MS), rat plasma; assay type: in vitro ADME; conditions: determined quantitatively by LC/MS, read-out: rat plasma halflife (converted)
Method: To obtain plasma stability quantitatively, peptide stock solutions (1 mM in DMSO) were shipped to Biofocus, UK, who performed the analysis. Peptides were diluted to 100 uM with water, and diluted 1:20 in plasma (5 uM final concentration, with the plasma at 95%), sampled as appropriate, precipitated as above, and quantified using a Waters Xevo TQ-MS.

[4] = molecular target: T1, Human factor XIa (hfXIa) (Homo sapiens, UniProt P03951); experiment: Inhibition of paralogous protease factor XIa; assay type: biochemical; conditions: highest concentration tested (100 μM)
Method: (§1) The target specificity of the isolated bicyclic peptide inhibitors was assessed by determining the inhibition of trypsin-like human serine proteases of the class S1A which comprises 79 members (Yousef, et al, Biochem Biophys Res Commun 2003, 305 (1), 28-36). The panel of proteases included hfXIa which shares the highest sequence identity with hPK (69%) as well as the structurally less related but vital human serine proteases thrombin (36%), plasmin (34% sequence identity with hPK) and factor XIIa (35%).

[5] = molecular target: Human thrombin (Homo sapiens, UniProt P00734); experiment: Inhibition of paralogous protease thrombin; assay type: biochemical; conditions: for inhibition of thrombin: highest concentration tested (100 μM)
Method: as §1

[6] = molecular target: T2, Human factor XIIa (hfXIIa) (Homo sapiens, UniProt P00748); experiment: Inhibition of paralogous protease factor XIIa; assay type: biochemical; conditions: for inhibition of factor XIIa: highest concentration tested (100 μM)
T2 sequence (P00748 373-615 limits assumed): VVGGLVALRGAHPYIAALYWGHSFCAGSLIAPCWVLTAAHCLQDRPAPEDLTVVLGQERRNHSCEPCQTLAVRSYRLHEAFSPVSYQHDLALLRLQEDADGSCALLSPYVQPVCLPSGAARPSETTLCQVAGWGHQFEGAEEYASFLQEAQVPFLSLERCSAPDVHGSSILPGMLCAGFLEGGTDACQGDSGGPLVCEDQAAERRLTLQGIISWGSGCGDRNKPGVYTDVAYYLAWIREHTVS
Method: as §1

[7] = Rapid plasma stability profiling, method 1 (MALDI-TOF), rat plasma; assay type: in vitro ADME; conditions: 35% rat plasma, 37 deg C, method 1, qualitative; listed as N-methylation of Arg5
Method: A rapid plasma stability profiling assay was developed that employed mass spectrometric detection (MALDI-TOF, Voyager DE, Applied Biosystems) of the parent mass, until the time when the parent peptide mass was no longer observable. Specifically, 200 uM of peptide was incubated in the presence of 35% rat or human plasma (Sera labs, using citrate as anticoagulant) at 37 deg C, which was supplemented with 1×PBS (derived from a 10×PBS Stock, Sigma). At various time points (i.e. t=0, 3, 24 hrs, henceafter daily up to 10 days), 2 uL of sample was added to 18 uL of 30 mM ammonium bicarbonate in a 1:1 mixture of acetonitrile:H2O. Samples were frozen at −80 deg C until the time of analysis. For mass spectrometric analysis that determines the approximate detection window of the peptide, the acetonitrile:H2O-diluted sample of a given time point was spotted directly (0.7 uL) onto the MALDI plate. Matrix (alpha-cyanocinnamic acid, Sigma, prepared as a saturated solution in 1:1 acetonitrile:water containing 0.1% trifluoroacetic acid) was layered over the sample (1 uL). At a similar laser intensity setting on the MALDI TOF, the time could then be determined until parent peptide was no longer detectable. It should be noted that this is a qualitative assay serves to detect relative changes in plasma stability.

[8] = molecular target: monkey plasma kallikrein (mPK) (Macaca mulatta, UniProt A0A1D5Q7U7); experiment: Inhibition of monkey plasma kallikrein
[9] = molecular target: T1, Human factor XIa (hfXIa); conditions: highest concentration tested (10 μM), Heinis et al. 2009; cited from earlier work
[10] = molecular target: Human plasmin (Homo sapiens, UniProt P00747); experiment: Inhibition of paralogous protease plasmin; assay type: biochemical; conditions: highest concentration tested (100 μM)
Method: as §1

[11] = molecular target: T3, Human plasma kallikrein (hPK) (human, UniProt P03952 20-638, limits assumed); experiment: enzyme inhibition assay (fluorogenic substrate)
T3 construct: also called human PK; human kallikrein

[12] = molecular target: T3, Human plasma kallikrein (hPK); experiment: enzyme inhibition assay (fluorogenic substrate); remark: listed apart in the source

T1 sequence (P03951 388-625 limits assumed): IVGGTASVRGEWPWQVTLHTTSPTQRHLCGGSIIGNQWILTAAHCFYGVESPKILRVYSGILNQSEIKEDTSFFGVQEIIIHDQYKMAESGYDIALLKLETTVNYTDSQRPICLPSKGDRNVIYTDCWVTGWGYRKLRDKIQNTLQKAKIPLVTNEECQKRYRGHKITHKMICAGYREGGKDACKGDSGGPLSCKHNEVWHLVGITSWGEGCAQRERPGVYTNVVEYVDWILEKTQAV
T1 sequence (P03951 19-387 partner limits assumed): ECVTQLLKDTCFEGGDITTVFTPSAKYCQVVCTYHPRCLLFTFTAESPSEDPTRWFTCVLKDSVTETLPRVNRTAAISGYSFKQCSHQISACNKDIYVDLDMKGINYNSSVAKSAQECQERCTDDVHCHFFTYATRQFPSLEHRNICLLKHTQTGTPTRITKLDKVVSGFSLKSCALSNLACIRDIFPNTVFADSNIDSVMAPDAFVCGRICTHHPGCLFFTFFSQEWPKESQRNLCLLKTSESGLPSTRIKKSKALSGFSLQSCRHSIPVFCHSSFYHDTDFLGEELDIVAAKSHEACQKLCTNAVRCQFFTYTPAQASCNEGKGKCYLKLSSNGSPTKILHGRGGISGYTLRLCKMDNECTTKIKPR
T3 sequence (P03952 20-638 limits assumed): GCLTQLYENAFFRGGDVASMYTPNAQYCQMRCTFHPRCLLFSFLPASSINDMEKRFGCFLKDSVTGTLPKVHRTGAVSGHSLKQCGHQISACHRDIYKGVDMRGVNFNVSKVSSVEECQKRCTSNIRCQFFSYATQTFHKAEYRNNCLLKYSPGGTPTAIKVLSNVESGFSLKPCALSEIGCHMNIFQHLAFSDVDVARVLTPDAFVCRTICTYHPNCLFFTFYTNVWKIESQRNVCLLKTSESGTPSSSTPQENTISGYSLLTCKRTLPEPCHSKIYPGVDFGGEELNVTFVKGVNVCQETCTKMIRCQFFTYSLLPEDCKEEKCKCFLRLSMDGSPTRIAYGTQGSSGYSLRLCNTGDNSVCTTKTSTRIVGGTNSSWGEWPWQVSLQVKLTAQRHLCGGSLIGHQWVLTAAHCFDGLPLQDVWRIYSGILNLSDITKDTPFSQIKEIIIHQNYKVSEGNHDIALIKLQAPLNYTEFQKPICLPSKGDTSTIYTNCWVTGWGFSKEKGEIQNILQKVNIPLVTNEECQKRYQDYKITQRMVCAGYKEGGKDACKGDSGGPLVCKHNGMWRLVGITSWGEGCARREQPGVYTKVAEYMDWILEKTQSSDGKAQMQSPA
Sequence of rat plasma kallikrein (rPK) (P14272 391-638 limits assumed): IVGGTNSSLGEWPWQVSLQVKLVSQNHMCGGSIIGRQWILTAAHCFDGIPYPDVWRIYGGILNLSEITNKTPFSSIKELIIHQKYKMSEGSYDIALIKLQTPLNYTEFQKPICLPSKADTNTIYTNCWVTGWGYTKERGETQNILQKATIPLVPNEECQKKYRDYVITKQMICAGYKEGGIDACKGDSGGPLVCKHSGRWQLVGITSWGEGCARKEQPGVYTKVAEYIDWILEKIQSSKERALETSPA
Sequence of monkey plasma kallikrein (mPK) (A0A1D5Q7U7 391-638): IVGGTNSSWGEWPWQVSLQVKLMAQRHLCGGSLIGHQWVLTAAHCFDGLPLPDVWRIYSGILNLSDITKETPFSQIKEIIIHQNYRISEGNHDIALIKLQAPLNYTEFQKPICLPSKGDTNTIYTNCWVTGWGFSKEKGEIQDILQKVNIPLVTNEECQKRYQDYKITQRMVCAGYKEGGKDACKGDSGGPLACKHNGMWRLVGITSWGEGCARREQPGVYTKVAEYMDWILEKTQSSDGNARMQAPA
Sequence of Human plasmin (P00747 581-810 limits assumed): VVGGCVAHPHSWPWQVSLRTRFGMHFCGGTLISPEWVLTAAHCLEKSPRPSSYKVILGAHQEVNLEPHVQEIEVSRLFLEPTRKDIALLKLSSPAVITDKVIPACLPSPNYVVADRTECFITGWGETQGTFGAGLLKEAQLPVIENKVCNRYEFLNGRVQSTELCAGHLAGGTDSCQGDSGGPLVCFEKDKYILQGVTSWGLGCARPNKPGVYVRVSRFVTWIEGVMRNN
Sequence of Human plasmin (P00747 97-580 partner limits assumed): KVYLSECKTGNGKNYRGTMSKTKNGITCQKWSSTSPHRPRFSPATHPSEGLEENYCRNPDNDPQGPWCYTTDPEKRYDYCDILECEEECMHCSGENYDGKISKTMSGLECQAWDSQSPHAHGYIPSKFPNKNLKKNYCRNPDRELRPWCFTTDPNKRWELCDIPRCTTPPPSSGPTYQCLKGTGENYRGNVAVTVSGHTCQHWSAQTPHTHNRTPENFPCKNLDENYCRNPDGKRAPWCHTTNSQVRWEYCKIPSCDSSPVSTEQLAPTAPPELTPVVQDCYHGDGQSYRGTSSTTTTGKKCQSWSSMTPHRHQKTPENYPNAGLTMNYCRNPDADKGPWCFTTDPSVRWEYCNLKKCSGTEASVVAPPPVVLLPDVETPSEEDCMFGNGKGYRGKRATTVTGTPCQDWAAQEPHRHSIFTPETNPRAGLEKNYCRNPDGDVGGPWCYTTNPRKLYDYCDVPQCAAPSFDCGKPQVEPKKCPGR

## CC(=O)N[C@H]1CSCc2cc3cc(c2)CSC[C@H](NC(=O)[C@H](CCCNC(=N)N)NC(=O)[C@H](C)NC(=O)[C@@H]2CCCN2C(=O)[C@H](Cc2c[nH]c4ccccc24)NC(=O)[C@H](CO)NC1=O)C(=O)N[C@@H](CC(C)C)C(=O)N[C@@H](Cc1c[nH]cn1)C(=O)N[C@@H](CCC(N)=O)C(=O)N[C@@H](CC(=O)O)C(=O)N[C@@H](CC(C)C)C(=O)N[C@H](C(N)=O)CSC3 [Ac-(06-34-18) wildtype]
[1]
  IC50: 1.7 nM
[2]
  Ki: 0.17 nM
[3]
  half-life at 5 uM: ~2 h

## CC(C)C[C@@H]1NC(=O)[C@H](CC(N)=O)NC(=O)[C@H](CCC(N)=O)NC(=O)[C@H](Cc2c[nH]cn2)NC(=O)[C@H](CC(C)C)NC(=O)[C@@H]2CSCc3cc(cc(c3)CSC[C@@H](C(=O)N[C@@H](C)C(N)=O)NC1=O)CSC[C@H](NC(=O)[C@H](C)N)C(=O)N[C@@H]([C@@H](C)O)C(=O)N[C@@H](Cc1ccc(O)cc1)C(=O)N1CCC[C@H]1C(=O)N[C@@H](Cc1ccc(O)cc1)C(=O)N[C@@H](CCCCN)C(=O)N2 [Peptide 2A10] (H-ACTYPYKCLHQNLCA-NH2; linker 2-8-14 via TBMB)
[2]
  Ki: 4.98 nM
[4]
  inhibition of hfXIa: did not inhibit
[5]
  inhibition of thrombin: did not inhibit
[6]
  inhibition of factor XIIa: did not inhibit

## CC(=O)N[C@H]1CSCc2cc3cc(c2)CSC[C@H](NC(=O)[C@H](CCCNC(=N)N)N(C)C(=O)[C@H](C)NC(=O)[C@@H]2CCCN2C(=O)[C@H](Cc2c[nH]c4ccccc24)NC(=O)[C@H](CO)NC1=O)C(=O)N[C@@H](CC(C)C)C(=O)N[C@@H](Cc1c[nH]cn1)C(=O)N[C@@H](CCC(N)=O)C(=O)N[C@@H](CC(=O)O)C(=O)N[C@@H](CC(C)C)C(=O)N[C@H](C(N)=O)CSC3 [Ac-(06-34-18) NMeArg5]
[7]
  Observable in rat plasma, for days: exceeds the assay time
[2]
  Ki: 3.5 nM
[2]; versus Ac-06-34-18(TMB)-NH2
  fold reduction in affinity to kallikrein compared to wildtype peptide: 20 fold

## CC(C)C[C@@H]1NC(=O)[C@H](C)NC(=O)[C@H](CCC(=O)O)NC(=O)[C@H](CC(=O)O)NC(=O)[C@H](C)NC(=O)[C@@H]2CCCN2C(=O)[C@@H]2CSCc3cc(cc(c3)CSC[C@@H](C(=O)NCC(N)=O)NC1=O)CSC[C@H](NC(=O)[C@H](C)N)C(=O)N[C@@H](CO)C(=O)N[C@@H](CC(=O)O)C(=O)N[C@@H](CCCNC(=N)N)C(=O)N[C@@H](Cc1ccccc1)C(=O)N[C@@H](CCCNC(=N)N)C(=O)N[C@@H](CC(N)=O)C(=O)N2 [PK15] (H-ACSDRFRNCPADEALCG-NH2; linker 2-9-16 via TBMB)
[8]
  Ki: 2.9 nM
[9]
  inhibition of factor XIa (hfXIa): did not inhibit

## C[C@H](N)C(=O)N[C@H]1CSCc2cc3cc(c2)CSC[C@H](NC(=O)[C@H](CCCNC(=N)N)NC(=O)[C@H](C)NC(=O)[C@@H]2CCCN2C(=O)[C@H](Cc2c[nH]c4ccccc24)NC(=O)[C@H](CCCNC(=N)N)NC1=O)C(=O)N[C@@H]([C@@H](C)O)C(=O)N[C@@H](Cc1c[nH]cn1)C(=O)N[C@@H](CCC(N)=O)C(=O)N[C@@H](CC(N)=O)C(=O)N[C@@H](Cc1ccc(O)cc1)C(=O)N[C@H](C(=O)N[C@@H](C)C(N)=O)CSC3 [Peptide 06-54] (H-ACRWPARCTHQNYCA-NH2; linker 2-8-14 via TBMB)
[1]
  Ki: 7 nM
[2]
  Ki: 0.49 nM
[4]
  inhibition of hfXIa: did not inhibit
[5]
  IC50: > 10000 nM
  inhibition of thrombin: did not inhibit
[10]
  inhibition of plasmin: did not inhibit
[6]
  IC50: > 10000 nM
  inhibition of factor XIIa: did not inhibit

## CC(C)C[C@@H]1NC(=O)[C@@H]2CSCc3cc(cc(c3)CSC[C@@H](C(=O)N[C@@H](C)C(N)=O)NC(=O)[C@@H]3CCCN3C(=O)[C@H](CCCNC(=N)N)NC(=O)[C@H](CCCNC(=N)N)NC(=O)[C@H](Cc3ccccc3)NC1=O)CSC[C@H](NC(=O)[C@H](C)N)C(=O)N[C@@H](C)C(=O)N[C@@H](CC(=O)O)C(=O)N1CCC[C@H]1C(=O)N[C@@H](Cc1c[nH]c3ccccc13)C(=O)N[C@@H](C)C(=O)N2 [06-63 T] (H-ACADPWACLFRRPCA-NH2; linker 2-8-14 via TBMB)
[2]
  Ki: 1280 nM
[5]
  IC50: > 10000 nM
[6]
  IC50: > 10000 nM

B1: Ac-(06-34-18) D-Trp2 (peptide)
peptide: Ac-CS[dW]PARCLHQDLC-NH2
modifications: linker 1-7-13 via TBMB
SMILES: CC(=O)N[C@H]1CSCc2cc3cc(c2)CSC[C@H](NC(=O)[C@H](CCCNC(=N)N)NC(=O)[C@H](C)NC(=O)[C@@H]2CCCN2C(=O)[C@@H](Cc2c[nH]c4ccccc24)NC(=O)[C@H](CO)NC1=O)C(=O)N[C@@H](CC(C)C)C(=O)N[C@@H](Cc1c[nH]cn1)C(=O)N[C@@H](CCC(N)=O)C(=O)N[C@@H](CC(=O)O)C(=O)N[C@@H](CC(C)C)C(=O)N[C@H](C(N)=O)CSC3
[11]
  fold loss in potency against Ac-06-34-18 wildtype: 45000 fold

B2: Ac-(06-34-18) NDMA5 (peptide)
peptide: Ac-CSWPA[Arg(Me2a)]CLHQDLC-NH2
modifications: linker 1-7-13 via TBMB
SMILES: CC(=O)N[C@H]1CSCc2cc3cc(c2)CSC[C@H](NC(=O)[C@H](CCCNC(=N)N(C)C)NC(=O)[C@H](C)NC(=O)[C@@H]2CCCN2C(=O)[C@H](Cc2c[nH]c4ccccc24)NC(=O)[C@H](CO)NC1=O)C(=O)N[C@@H](CC(C)C)C(=O)N[C@@H](Cc1c[nH]cn1)C(=O)N[C@@H](CCC(N)=O)C(=O)N[C@@H](CC(=O)O)C(=O)N[C@@H](CC(C)C)C(=O)N[C@H](C(N)=O)CSC3
[12]
  Ki: 510 nM

B3: Ac-(06-34-18) D-Ala4 (peptide)
peptide: Ac-CSWP[dA]RCLHQDLC-NH2
modifications: linker 1-7-13 via TBMB
SMILES: CC(=O)N[C@H]1CSCc2cc3cc(c2)CSC[C@H](NC(=O)[C@H](CCCNC(=N)N)NC(=O)[C@@H](C)NC(=O)[C@@H]2CCCN2C(=O)[C@H](Cc2c[nH]c4ccccc24)NC(=O)[C@H](CO)NC1=O)C(=O)N[C@@H](CC(C)C)C(=O)N[C@@H](Cc1c[nH]cn1)C(=O)N[C@@H](CCC(N)=O)C(=O)N[C@@H](CC(=O)O)C(=O)N[C@@H](CC(C)C)C(=O)N[C@H](C(N)=O)CSC3
[11]
  fold reduction of affinity against Ac-06-34-18 wildtype: 7000 fold

B4: Ac-(06-34-18) SDMA5 (peptide)
peptide: Ac-CSWPA[Arg(Me2s)]CLHQDLC-NH2
modifications: linker 1-7-13 via TBMB
SMILES: CN=C(NC)NCCC[C@@H]1NC(=O)[C@H](C)NC(=O)[C@@H]2CCCN2C(=O)[C@H](Cc2c[nH]c3ccccc23)NC(=O)[C@H](CO)NC(=O)[C@@H](NC(C)=O)CSCc2cc3cc(c2)CSC[C@H](NC1=O)C(=O)N[C@@H](CC(C)C)C(=O)N[C@@H](Cc1c[nH]cn1)C(=O)N[C@@H](CCC(N)=O)C(=O)N[C@@H](CC(=O)O)C(=O)N[C@@H](CC(C)C)C(=O)N[C@H](C(N)=O)CSC3
[12]
  Ki: 1420 nM
